Assay results taken from patent US20250257086A1, “EGFR DEGRADATION AGENT” (Beijing Tide Pharmaceutical Co., Ltd., priority 2022, published 2025).

Target: Ba/F3 (EGFR^L858R/T790M/C797S) cells (Homo sapiens, UniProt P00533, T790M/C797S/L858R, cells depend on it)
Assay: Antiproliferative activity on Ba/F3 (EGFR L858R/T790M/C797S) cells (CTG)
Assay type: cell-based
Conditions: 72h incubation, CTG luminescence, read-out: IC50 (nM), antiproliferative activity
Experimental: 30 nL of the compound dilution was added to a 384-well plate by Echo (Labcyte, Echo550).
The percent inhibition rate (% inhibition) was calculated by the following formula
[formula] • LUMcmpd: Luminescence value of assay compound. • LUMpositive: Average LUM value of positive drug with a concentration of 10 μM. • LUMvehicle: Average LUM value of negative control group without drug treatment.
The nonlinear regression curve (dose response-variable slope) between the value of inhibition rate (%) and the logarithm of compound concentration was fitted with graphpad prism 8.0, the effect dose curve of compound was drawn, and the IC50 value was calculated.
Y=Bottom+(Top−Bottom)/(1+10^((Log IC50−X)*HillSlope)) • X-axis: logarithm of compound concentration; Y axis: inhibition rate (% inhibition).

Ba/F3 (EGFR^L858R/T790M/C797S) cells, sequence (P00533 whole entry T790M/C797S/L858R): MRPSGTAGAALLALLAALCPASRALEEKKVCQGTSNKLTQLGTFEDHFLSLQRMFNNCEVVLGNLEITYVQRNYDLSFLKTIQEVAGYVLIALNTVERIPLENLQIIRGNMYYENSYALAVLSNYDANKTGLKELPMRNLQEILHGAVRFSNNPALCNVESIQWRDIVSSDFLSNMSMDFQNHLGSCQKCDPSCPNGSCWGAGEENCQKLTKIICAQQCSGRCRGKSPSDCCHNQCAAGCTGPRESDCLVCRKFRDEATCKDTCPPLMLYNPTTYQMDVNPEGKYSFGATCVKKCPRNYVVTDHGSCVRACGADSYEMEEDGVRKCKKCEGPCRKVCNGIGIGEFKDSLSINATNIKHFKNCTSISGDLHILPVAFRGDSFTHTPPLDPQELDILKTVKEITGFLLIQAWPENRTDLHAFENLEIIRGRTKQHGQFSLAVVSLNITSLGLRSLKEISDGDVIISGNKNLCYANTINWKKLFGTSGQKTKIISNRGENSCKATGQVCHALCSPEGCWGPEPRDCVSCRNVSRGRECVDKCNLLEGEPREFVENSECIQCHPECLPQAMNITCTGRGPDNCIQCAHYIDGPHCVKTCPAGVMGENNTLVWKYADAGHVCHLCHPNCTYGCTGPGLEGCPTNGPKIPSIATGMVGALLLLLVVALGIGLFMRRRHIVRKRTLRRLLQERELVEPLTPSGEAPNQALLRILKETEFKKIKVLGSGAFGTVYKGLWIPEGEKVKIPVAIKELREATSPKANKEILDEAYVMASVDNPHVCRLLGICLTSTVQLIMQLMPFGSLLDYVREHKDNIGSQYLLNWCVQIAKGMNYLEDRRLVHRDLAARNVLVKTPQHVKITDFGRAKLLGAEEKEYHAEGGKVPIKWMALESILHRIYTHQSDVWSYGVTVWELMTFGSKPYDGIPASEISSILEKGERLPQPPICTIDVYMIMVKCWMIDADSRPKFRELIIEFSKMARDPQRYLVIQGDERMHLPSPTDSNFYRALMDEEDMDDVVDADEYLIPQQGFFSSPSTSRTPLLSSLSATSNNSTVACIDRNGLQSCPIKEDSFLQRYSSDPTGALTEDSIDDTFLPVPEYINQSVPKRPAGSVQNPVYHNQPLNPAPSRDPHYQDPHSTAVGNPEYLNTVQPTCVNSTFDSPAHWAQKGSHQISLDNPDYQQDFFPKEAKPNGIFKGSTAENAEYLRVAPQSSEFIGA

GI50 [nM] | SMILES
7.76 | CC#CC(=O)Nc1cc(Nc2ncc(C(F)(F)F)c(Nc3ccccc3P(C)(C)=O)n2)c(OC)cc1N1CCC(N2CCN(CCCC#Cc3cccc4c3CN(C3CCC(=O)NC3=O)C4=O)CC2)CC1 (stereo not shown) [Compound D748, N-(5-((4-((2-(dimethylphosphoryl)phenyl)amino)-5-(trifluoromethyl)pyrimidin-2-yl)amino)-2-(4-(4-(5-(2-(2,6-dioxopiperidin-3-yl)-1-oxoisoindolin-4-yl)pent-4-yn-1-yl)piperazin-1-yl)piperidin-1-yl)-4-methoxyphenyl)but-2-ynamide]
25.7 | C=CC(=O)Nc1cc(Nc2ncc(Cl)c(Nc3ccc4nccnc4c3P(C)(C)=O)n2)c(OC)cc1N1CCC(N2CCN(CCCC#Cc3cccc4c3CN(C3CCC(=O)NC3=O)C4=O)CC2)CC1 (stereo not shown) [Compound D670, N-(5-((5-chloro-4-((5-(dimethylphosphoryl)quinoxalin-6-yl)amino)pyrimidin-2-yl)amino)-2-(4-(4-(5-(2-(2,6-dioxopiperidin-3-yl)-1-oxoisoindolin-4-yl)pent-4-yn-1-yl)piperazin-1-yl)piperidin-1-yl)-4-methoxyphenyl)acrylamide]
14.5 | C=CC(=O)Nc1cc(Nc2ncc(Br)c(Nc3ccccc3P(C)(C)=O)n2)ccc1N1CCC(N2CCN(CCCCCC#Cc3cccc4c3CN(C3CCC(=O)NC3=O)C4=O)CC2)CC1 (stereo not shown) [Compound D551, N-(5-((5-bromo-4-((2-(dimethylphosphoryl)phenyl)amino)pyrimidin-2-yl)amino)-2-(4-(4-(7-(2-(2,6-dioxopiperidin-3-yl)-1-oxoisoindolin-4-yl)hept-6-yn-1-yl)piperazin-1-yl)piperidin-1-yl)phenyl)acrylamide]
144 | C=CC(=O)Nc1cc(Nc2ncc(Cl)c(Nc3ccccc3P(C)(C)=O)n2)c(OC)cc1N1CCC(N2CCN(CCCCC#Cc3ccc4c(c3)CN(C3CCC(=O)NC3=O)C4=O)CC2)CC1 (stereo not shown) [Compound D601, N-(5-((5-chloro-4-((2-(dimethylphosphoryl)phenyl)amino)pyrimidin-2-yl)amino)-2-(4-(4-(6-(2-(2,6-dioxopiperidin-3-yl)-1-oxoisoindolin-5-yl)hex-5-yn-1-yl)piperazin-1-yl)piperidin-1-yl)-4-methoxyphenyl)acrylamide]
7.41 | C=CC(=O)Nc1cc(Nc2ncc(Br)c(Nc3ccccc3P(C)(C)=O)n2)ccc1N1CCC(N2CCN(CCCC#Cc3cccc4c3CN(C3CCC(=O)NC3=O)C4=O)CC2)CC1 (stereo not shown) [Compound D549, N-(5-((5-bromo-4-((2-(dimethylphosphoryl)phenyl)amino)pyrimidin-2-yl)amino)-2-(4-(4-(5-(2-(2,6-dioxopiperidin-3-yl)-1-oxoisoindolin-4-yl)pent-4-yn-1-yl)piperazin-1-yl)piperidin-1-yl)phenyl)acrylamide]
582 | COc1cc(N2CCC(N3CCN(CCCCC#Cc4cccc5c4CN(C4CCC(=O)NC4=O)C5=O)CC3)CC2)c(NC(=O)/C=C/CN(C)C)cc1Nc1ncc(Cl)c(Nc2ccccc2P(C)(C)=O)n1 (stereo not shown) [Compound D556, (E)-N-(5-((5-chloro-4-((2-(dimethylphosphoryl)phenyl)amino)pyrimidin-2-yl)amino)-2-(4-(4-(6-(2-(2,6-dioxopiperidin-3-yl)-1-oxoisoindolin-4-yl)hex-5-yn-1-yl)piperazin-1-yl)piperidin-1-yl)-4-dimethoxyphenyl)-4-(dimethylamino)but-2-enamide]
67.6 | COc1cc(N2CCC(N3CCN(CCCC#Cc4cccc5c4CN(C4CCC(=O)NC4=O)C5=O)CC3)CC2)c(NC(=O)/C=C/CN(C)C)cc1Nc1ncc(Cl)c(Nc2ccccc2P(C)(C)=O)n1 (stereo not shown) [Compound D555, N-(5-((5-chloro-4-((2-(dimethylphosphoryl)phenyl)amino)pyrimidin-2-yl)amino)-2-(4-(4-(5-(2-(2,6-dioxopiperidin-3-yl)-1-oxoisoindolin-4-yl)pent-4-yn-1-yl)piperazin-1-yl)piperidin-1-yl)-4-methoxyphenyl)-4-(dimethylamino)but-2-enamide]
46.7 | COc1cc(N2CCC(N3CCN(CCCCC#Cc4cccc5c4CN(C4CCC(=O)NC4=O)C5=O)CC3)CC2)c(NC(=O)/C=C/C(F)(F)F)cc1Nc1ncc(Cl)c(Nc2ccccc2P(C)(C)=O)n1 (stereo not shown) [Compound D620, N-(5-((5-chloro-4-((2-(dimethylphosphoryl)phenyl)amino)pyrimidin-2-yl)amino)-2-(4-(4-(6-(2-(2,6-dioxopiperidin-3-yl)-1-oxoisoindolin-4-yl)hex-5-yn-1-yl)piperazin-1-yl)piperidin-1-yl)-4-methoxyphenyl)-4,4,4-trifluorobut-2-enamide]
8.77 | COc1cc(N2CCC(N3CCN(CCCC#Cc4cccc5c4CN(C4CCC(=O)NC4=O)C5=O)CC3)CC2)c(NC(=O)/C=C/C(F)(F)F)cc1Nc1ncc(C(F)(F)F)c(Nc2ccccc2P(C)(C)=O)n1 (stereo not shown) [Compound D747, (E)-N-(5-((4-((2-(dimethylphosphoryl)phenyl)amino)-5-(trifluoromethyl)pyrimidin-2-yl)amino)-2-(4-(4-(5-(2-(2,6-dioxopiperidin-3-yl)-1-oxoisoindolin-4-yl)pent-4-yn-1-yl)piperazin-1-yl)piperidin-1-yl)-4-methoxyphenyl)-4,4,4-trifluorobut-2-enamide]
13.7 | C=C(F)C(=O)Nc1cc(Nc2ncc(Cl)c(Nc3ccccc3P(C)(C)=O)n2)ccc1N1CCC(N2CCN(CCCC#Cc3cccc4c3CN(C3CCC(=O)NC3=O)C4=O)CC2)CC1 (stereo not shown) [Compound D666, N-(5-((5-chloro-4-((2-(dimethylphosphoryl)phenyl)amino)pyrimidin-2-yl)amino)-2-(4-(4-(5-(2-(2,6-dioxopiperidin-3-yl)-1-oxoisoindolin-4-yl)pent-4-yn-1-yl)piperazin-1-yl)piperidin-1-yl)phenyl)-2-fluoroacrylamide]
15.1 | CC#CC(=O)Nc1cc(Nc2ncc(Cl)c(Nc3ccc4nccnc4c3P(C)(C)=O)n2)c(OC)cc1N1CCC(N2CCN(CCCC#Cc3cccc4c3CN(C3CCC(=O)NC3=O)C4=O)CC2)CC1 (stereo not shown) [Compound D672, N-(5-((5-chloro-4-((5-(dimethylphosphoryl)quinoxalin-6-yl)amino)pyrimidin-2-yl)amino)-2-(4-(4-(5-(2-(2,6-dioxopiperidin-3-yl)-1-oxoisoindolin-4-yl)pent-4-yn-1-yl)piperazin-1-yl)piperidin-1-yl)-4-methoxyphenyl)but-2-ynamide]
8.87 | C=C(F)C(=O)Nc1cc(Nc2ncc(C(F)(F)F)c(Nc3ccccc3P(C)(C)=O)n2)c(OCC(F)(F)F)cc1N1CCC(N2CCN(CCCC#Cc3cccc4c3CN(C3CCC(=O)NC3=O)C4=O)CC2)CC1 (stereo not shown) [Compound D870, N-(5-((4-((2-(dimethylphosphoryl)phenyl)amino)-5-(trifluoromethyl)pyrimidin-2-yl)amino)-2-(4-(4-(5-(2-(2,6-dioxopiperidin-3-yl)-1-oxoisoindolin-4-yl)pent-4-yn-1-yl)piperazin-1-yl)piperidin-1-yl)-4-(2,2,2-trifluoroethoxy)phenyl)-2-fluoroacrylamide]
11.9 | CCCC#CC(=O)Nc1cc(Nc2ncc(C(F)(F)F)c(Nc3ccccc3P(C)(C)=O)n2)c(OC)cc1N1CCC(N2CCN(CCCC#Cc3cccc4c3CN(C3CCC(=O)NC3=O)C4=O)CC2)CC1 (stereo not shown) [Compound D835, N-(5-((4-((2-(dimethylphosphoryl)phenyl)amino)-5-(trifluoromethyl)pyrimidin-2-yl)amino)-2-(4-(4-(5-(2-(2,6-dioxopiperidin-3-yl)-1-oxoisoindolin-4-yl)pent-4-yn-1-yl)piperazin-1-yl)piperidin-1-yl)-4-methoxyphenyl)hex-2-ynamide]
